In experiment [1] the test system is normal mice. The experiment in a line: Hypoglycemic effect of synthetic polypeptides on normal mice after subcutaneous injection (Example 9). It counts as in vivo, Kunming white mice. The following applies: 1 mg/mL at 0.05 ml/10 g, single subcutaneous injection on the back; for Blood glucose level prior to administration: baseline.
In experiment [2] the test system is normal mice. Kind of experiment: Hypoglycemic effect on normal mice after subcutaneous injection on the back (Example 5). The following applies: for Blood glucose level at 15 min after administration / Blood glucose level at 30 min after administration / Blood glucose level at 45 min after administration / Blood glucose level at 60 min after administration / Blood glucose level prior to administration: single subcutaneous injection on the back; for Blood glucose level prior to administration: baseline. The format is in vivo, Kunming white mice.

Setting [3] is: Group A high-dose, 1 mg/mL at 0.10 ml/10 g.
[4] abbreviates: Group B medium-dose, 1 mg/mL at 0.05 ml/10 g.
The mark [5] stands for this setting: Group C low-dose, 1 mg/mL at 0.025 ml/10 g.

Bridge positions count the residues as written; N and C are the ends. Square brackets hold non-standard residues; d marks the D form. Ends that are not written are not given here. Met(O) = CS(=O)CC[C@H](N)C(=O)O

Experimental findings from patent US20200038478A1, “POLYPEPTIDE AND COMPOSITION THEREOF FOR TREATING DISEASES OF METABOLIC SYSTEM” (WUHAN GRECTECH CO., LTD., priority 2017, published 2020) are described below.

In the case of “ASCNGVCSPFDIPPCGTPLCRCIPVGLVIGNCRNPYG (disulfide 15-32, 3-20, 7-22) [SEQ ID No. 13]”, in experiment [1], the “Blood glucose level at 15 min after administration” value (“Blood glucose level at 15 min” below) stood at 6.1 ± 0.3 mmol/L, the “Blood glucose level at 30 min after administration” value (shortened to “Blood glucose level at 30 min”) stood at 4.4 ± 0.4 mmol/L, the “Blood glucose level at 45 min after administration” value (“Blood glucose level at 45 min” for short) is 3.5 ± 0.3 mmol/L and the “Blood glucose level at 60 min after administration” value (“Blood glucose level at 60 min” below) is reported as 2.6 ± 0.3 mmol/L. In addition, the “Blood glucose level prior to administration” value (shortened to “Blood glucose level prior”) in experiment [1] is recorded as 7.4 ± 0.6 mmol/L.
“ASCNGVCSPFDMPPCGTSACRCIPAGLFIGKCRNPYG (disulfide 15-32, 3-20, 7-22) [SEQ ID No. 17]”: in experiment [1], the “Blood glucose level at 15 min” value amounted to 6.6 ± 0.5 mmol/L, the “Blood glucose level at 30 min” value was found to be 4.9 ± 0.4 mmol/L, the “Blood glucose level at 45 min” value is given as 3.6 ± 0.3 mmol/L and the “Blood glucose level at 60 min” value came out at 3.0 ± 0.2 mmol/L. In addition, in experiment [1], the “Blood glucose level prior” value is on record as 8.2 ± 0.7 mmol/L.
Taken in the same sequence, the figures for “ASCNGVCSPFEIPPCGSPLCRCIPVGLVIGNCRNPYG (disulfide 15-32, 3-20, 7-22) [SEQ ID No. 21]” were 6.7 ± 0.4 mmol/L, 5.2 ± 0.3 mmol/L, 4.3 ± 0.2 mmol/L, 3.6 ± 0.1 mmol/L and 7.8 ± 0.4 mmol/L.
Take “ASCNGVCSPFEMoxPPCGTSACRCIPVGLFIGYCRNPSG (ASCNGVCSPFE[Met(O)]PPCGTSACRCIPVGLFIGYCRNPSG; disulfide 15-32, 3-20, 7-22; listed as Pisum sativum) [SEQ ID No. 8]”: in experiment [2] (setting [3]), the “Blood glucose level at 15 min” value was 5.1 ± 0.4 mmol/L, the “Blood glucose level at 30 min” value is listed as 3.0 ± 0.4 mmol/L, the “Blood glucose level at 45 min” value turned out to be 2.2 ± 0.2 mmol/L and the “Blood glucose level at 60 min” value is listed as 1.7 ± 0.1 mmol/L. In experiment [2] (setting [3]), the “Blood glucose level prior” value worked out at 7.4 ± 0.5 mmol/L. Besides, in experiment [2] (setting [4]), the “Blood glucose level at 15 min” value is 5.2 ± 0.4 mmol/L, the “Blood glucose level at 30 min” value turned out to be 4.3 ± 0.5 mmol/L, the “Blood glucose level at 45 min” value is listed as 3.2 ± 0.3 mmol/L and the “Blood glucose level at 60 min” value is 2.6 ± 0.2 mmol/L. The “Blood glucose level prior” value in experiment [2] (setting [4]) was 7.1 ± 0.6 mmol/L. Besides, in experiment [2] (setting [5]), the “Blood glucose level at 15 min” value is reported as 6.2 ± 0.3 mmol/L, the “Blood glucose level at 30 min” value was 4.9 ± 0.3 mmol/L, the “Blood glucose level at 45 min” value came to 3.8 ± 0.2 mmol/L and the “Blood glucose level at 60 min” value is reported as 4.6 ± 0.2 mmol/L. In addition, the “Blood glucose level prior” value in experiment [2] (setting [5]) was 7.3 ± 0.4 mmol/L. Also, the “hypoglycemic activity (conclusion)” value in experiment [2] (normal mice, subcutaneous injection) is reported as “explicit hypoglycemic activity”.
As to “ISCNGVCSPFDIPPCGTPLCRCIPAGLFVGKCRNPYG (disulfide 15-32, 3-20, 7-22) [SEQ ID No. 36]”, in experiment [1], the “Blood glucose level at 15 min” value is reported as 6.2 ± 0.4 mmol/L, the “Blood glucose level at 30 min” value was 4.3 ± 0.3 mmol/L, the “Blood glucose level at 45 min” value is on record as 3.5 ± 0.2 mmol/L and the “Blood glucose level at 60 min” value is 2.8 ± 0.1 mmol/L. Moreover, in experiment [1], the “Blood glucose level prior” value is listed as 7.1 ± 0.5 mmol/L.
As for “ISCNGVCSPFDMPPCGSPACRCIPAGLLIGYCRNPSG (disulfide 15-32, 3-20, 7-22) [SEQ ID No. 38]”, in experiment [1], the “Blood glucose level at 15 min” value was 4.9 ± 0.3 mmol/L, the “Blood glucose level at 30 min” value turned out to be 3.6 ± 0.4 mmol/L, the “Blood glucose level at 45 min” value came out at 3.1 ± 0.2 mmol/L and the “Blood glucose level at 60 min” value stood at 3.5 ± 0.3 mmol/L. Further, the “Blood glucose level prior” value in experiment [1] was 6.3 ± 0.5 mmol/L.
Taken in the same sequence, the figures for “ISCNGVCSPFEIPPCGSSLCRCIPAGLLVGKCRNPSG (disulfide 15-32, 3-20, 7-22) [SEQ ID No. 44]” were 6.3 ± 0.3 mmol/L, 5.5 ± 0.2 mmol/L, 3.8 ± 0.3 mmol/L, 2.6 ± 0.2 mmol/L and 7.2 ± 0.3 mmol/L.
On to “ISCNGVCSPFEMPPCGTSLCRCIPAGLVVGYCRNPSG (disulfide 15-32, 3-20, 7-22) [SEQ ID No. 50]”, for which, in experiment [1], the “Blood glucose level at 15 min” value was 6.2 ± 0.5 mmol/L, the “Blood glucose level at 30 min” value worked out at 5.3 ± 0.2 mmol/L, the “Blood glucose level at 45 min” value is reported as 4.6 ± 0.3 mmol/L and the “Blood glucose level at 60 min” value was found to be 3.2 ± 0.3 mmol/L. Further, in experiment [1], the “Blood glucose level prior” value turned out to be 7.3 ± 0.6 mmol/L.
For “VSCNGVCSPFDIPPCGTPACRCIPYGLFVGNCRNPYG (disulfide 15-32, 3-20, 7-22) [SEQ ID No. 52]” the same measures were 6.4 ± 0.4 mmol/L, 5.4 ± 0.5 mmol/L, 4.3 ± 0.3 mmol/L, 2.9 ± 0.3 mmol/L and 7.1 ± 0.3 mmol/L.
For “VSCNGVCSPFDMPPCGTSACRCIPAGLFIGYCRNPSG (disulfide 15-32, 3-20, 7-22) [SEQ ID No. 61]” the same measures were 5.6 ± 0.4 mmol/L, 4.3 ± 0.3 mmol/L, 3.6 ± 0.2 mmol/L, 2.3 ± 0.1 mmol/L and 6.9 ± 0.4 mmol/L.
As to “VSCNGVCSPFEIPPCGSPLCRCIPAGLVIGNCRNPYG (disulfide 15-32, 3-20, 7-22) [SEQ ID No. 63]”, in experiment [1], the “Blood glucose level at 15 min” value is 5.9 ± 0.5 mmol/L, the “Blood glucose level at 30 min” value was 4.6 ± 0.4 mmol/L, the “Blood glucose level at 45 min” value is 3.2 ± 0.3 mmol/L and the “Blood glucose level at 60 min” value came to 3.5 ± 0.2 mmol/L. The “Blood glucose level prior” value in experiment [1] is on record as 6.6 ± 0.6 mmol/L.
For “VSCNGVCSPFEMPPCGSSACRCIPYGLVVGNCRNPSG (disulfide 15-32, 3-20, 7-22) [SEQ ID No. 68]” the same measures were 5.5 ± 0.4 mmol/L, 4.2 ± 0.3 mmol/L, 3.4 ± 0.4 mmol/L, 2.2 ± 0.1 mmol/L and 6.7 ± 0.6 mmol/L.
